The numbers were not newly measured in US20220211847A1, “COMBINATION OF MONALIZUMAB, DURVALUMAB, CHEMOTHERAPY AND BEVACIZUMAB OR CETUXIMAB FOR THE TREATMENT OF COLORECTAL CANCER” (MEDIMMUNE LIMITED, priority 2019, published 2022), which cites them from elsewhere.

The test system of one data set is CRC. To be noted: similar population.
The subject of data set [1] is unresectable metastatic disease (mCRC). As to conditions: added to oxaliplatin-based regimens.
Data set [2] concerns microsatellite instability-high CRC or mismatch repair deficient CRC. As to conditions: monotherapy; MSI-high or mismatch repair deficient CRC.
Data set [3] relates to MSI high CRCs and MSS CRCs.

Where two headings read alike, the source gives them in different places.

On to `CNC(=O)c1cc(Oc2ccc(NC(=O)Nc3ccc(Cl)c(C(F)(F)F)c3)c(F)c2)ccn1` [regorafenib], for which the “median OS” value in the data set with CRC is given as 6.4 months.
Take “bevacizumab: recombinant humanized monoclonal antibody directed against human vascular endothelial growth factor (VEGF)”: the “increase in Progression-free survival (PFS) compared with regimens without bevacizumab” value in data set [1] is recorded as 1.4 months. Moreover, the “difference in Overall Survival (OS)” value in data set [1] (not statistically significant) was 1.4 months.
Consider nivolumab, for which the ORR in data set [2] is given as 28%.
“pembrolizumab: humanized monoclonal IgG4 antibody directed against human cell surface receptor PD-1”: the “objective response rate (ORR)” value in data set [3] (10 mg/kg Q2W, microsatellite proficient CRC) is 0%. Moreover, the “immune-related objective response rate” value in data set [3] (MSI high CRCs) is reported as 40%; in data set [3] (MSS CRCs), 0%. Moreover, the figures for the “immune-related progression free survival rate” value in data set [3] (MSI high CRCs) and in data set [3] (MSS CRCs) were 78% and 11%, respectively. Besides, the “patients who experienced disease progression” value in data set [3] (MSI-H CRC) is reported as 1 of 10; in data set [3] (MSS CRC), 11/18.
